We go through four molecules from US5177077A, “1,4-disubstituted piperazines” (Novo Nordisk A/S, priority 1990, dated 1993).

Where two headings read alike, the source gives them in different places.

One may read the ED50 as the dose at which the effect has come halfway, by size or by number of responders.

Assay [1] concerns the target T1, DA-uptake complex (Rattus norvegicus, UniProt P23977).
T1 construct: in a striatal membrane preparation; from tissue; host or cells: striatal membranes
The assay is described as follows: Test 1: inhibition of 3H-GBR 12935 binding to the DA-uptake complex in a striatal membrane preparation. The method, then:
The compounds were tested for their ability to inhibit the binding of 3H-GBR 12935 to the DA-uptake complex in a striatal membrane preparation following the method described by Andersen (Eur. J. Pharmacol. 166: 493-504, 1989).

The test system of assay [2] is motility of mice. The assay is described as follows: Test 2: increase of motility of mice (photocell crossings). Format: in vivo, Male NMRI mice. As to conditions: for ED50: Mus musculus, po, lowest ED50 determined at a 20 min interval during the 360 min test period, drugs administered orally. The method, then:
The compounds were also tested for their ability to increase the motility of mice following intravenous administration using the method outlined below.
Male NMRI mice are used (20±2 g). The animals are housed 20-30 per cage under constant temperature (20°±1°) and relative humidity (40-60%). The animals are brought into the experimental room in the afternoon, the day before they undergo testing.
The experimentally-naive mice are acclimatized by being placed in a plexiglass box (WLH: 20×20×38 cm), four per box, for a 120 min period, and then treated with the test compound whereafter they are replaced in the plexiglass box.
The plexiglass box is equipped with a frame of photocells (spaced equidistantly) which are situated so as to detect locomotor behaviour of the animals (1 cm above the floor). The photocell chamber is housed in an sound-insulated, dimly-lit, ventilated chest. As a measure of exploratory behaviour, the number of photocell crossings in a 360 min period is detected using a minicomputer. Testing is made between 7:00 and 17.00 h.
Drugs are administered orally simultaneously with start of testing; N=4/dose; 4-5 doses of test drug is given in a volume of 10 ml/kg.
Computer programmed log-probit methods are used to generate an ED50 in mg/kg using as minimum the control result, and as maximum values are used 7700 (this latter value has been experimentally found as the maximum motility counts after d-amphetamine in a 20 min period).
The test result is the lowest ED50 value determined at a 20 min interval during the 360 min test period.

T1 sequence (P23977 whole entry, one chain of several): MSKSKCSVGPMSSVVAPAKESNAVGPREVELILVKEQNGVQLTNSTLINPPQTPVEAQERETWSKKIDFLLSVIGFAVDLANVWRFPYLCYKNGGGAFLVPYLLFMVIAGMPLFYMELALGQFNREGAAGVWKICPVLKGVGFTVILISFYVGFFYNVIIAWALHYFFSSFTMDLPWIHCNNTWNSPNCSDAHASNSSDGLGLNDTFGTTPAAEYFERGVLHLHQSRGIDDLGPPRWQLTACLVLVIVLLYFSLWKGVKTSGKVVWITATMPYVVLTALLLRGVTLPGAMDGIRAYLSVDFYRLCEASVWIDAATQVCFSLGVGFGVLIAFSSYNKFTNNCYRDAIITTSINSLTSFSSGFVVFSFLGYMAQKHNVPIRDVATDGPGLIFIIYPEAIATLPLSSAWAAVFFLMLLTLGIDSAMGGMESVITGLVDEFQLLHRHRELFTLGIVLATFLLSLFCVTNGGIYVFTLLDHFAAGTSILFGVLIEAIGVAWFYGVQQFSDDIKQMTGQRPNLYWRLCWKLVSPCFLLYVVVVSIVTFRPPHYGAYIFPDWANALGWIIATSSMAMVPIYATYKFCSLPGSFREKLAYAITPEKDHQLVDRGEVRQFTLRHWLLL

In the case of `Cc1ccsc1C(OCCN1CCN(CCCc2ccccc2)CC1)c1ccc(F)cc1` (stereo not shown) [Example 1], the IC50 in assay [1] (striatal membrane preparation, method of Andersen 1989, read-out: Test 1 (inhibition of 3H-GBR 12935 binding)) came out at 9 nM. This molecule also yielded an ED50 in assay [2] of 30 mg/kg.

For `Fc1ccc(C(OCCN2CCN(CC=Cc3ccco3)CC2)c2cccs2)cc1` (stereo not shown) [Example 2, 1-[2-((4-fluorophenyl)-(2-thienyl)methoxy)ethyl]-4-[3-(2-furyl)-2-propenyl]piperazine], the IC50 in assay [1] was determined as 4.7 nM. Also, in assay [2], the ED50 was 17.4 mg/kg.

On to `Fc1ccc(C(OCCN2CCN(CCCc3ccccc3)CC2)c2ccsc2)cc1` (stereo not shown) [Example 3, 1-[2-((4-fluorophenyl)-(3-thienyl)methoxy)ethyl]-4-(3-phenylpropyl)piperazine], for which, in assay [1], the IC50 was 3.7 nM. In assay [2], the ED50 stood at 32 mg/kg.

Molecule `C[C@H](N)Cc1ccccc1` [d-amphetamine, reference compound] registered a maximum motility counts in assay [2] (in a 20 min period, used as maximum for the log-probit ED50) of 7700.
